Measured values reported in PMC10535864, “Novel Aminopyrimidine-2,4-diones, 2-Thiopyrimidine-4-ones, and 6-Arylpteridines as Dual-Target Inhibitors of BRD4/PLK1: Design, Synthesis, Cytotoxicity, and Computational Studies” (Pharmaceuticals, 2023).

Columns and labels:
Type in all cases: cell-based
[1] = tested on: MDA-MB-231 breast cancer cells; test: MTT cytotoxicity assay, MDA-MB-231; conditions: MDA-MB-231, MTT; for IC50 / viability at 0.312 µM / viability at 0.625 µM / viability at 1.25 µM / viability at 2.5 µM / viability at 5 µM / viability at 10 µM: Homo sapiens; for IC50: mean of three independent experiments ± SD, read-out: IC50 Value MDA-MB-231
Protocol: (§1) All newly synthetic compounds were tested for cytotoxicity using a six-dose MTT colorimetric assay on three cancer cell lines; namely, breast cancer cells (MDA-MB-231), colorectal adenocarcinoma cells (HT-29) and renal cancer cells (U-937). […] However, renal cancer cells (U-937) were discovered to be the least sensitive.
(§2) Using a six-dose MTT colorimetric assay, all new synthetic compounds were tested for cytotoxicity against three cancer cell lines: MDA-MB-231 breast cancer cells, HT-29 colorectal adenocarcinoma cells, and U-937 renal cancer cells. […] These cell lines were supplied by ATCC (American Type Culture Collection) via the Holding company for biological products and vaccines (VACSERA, Cairo, Egypt). The reference control used was Methotrexate. Detailed descriptions of the MTT colorimetric assay’s protocol can be found in the Supplementary file.
(§3) 1.1.In-vitro cytotoxicity screening
(§4) Using a six-dose MTT colorimetric assay, allnew synthetic compounds were tested for cytotoxicity against three cancer cell lines: MDA-MB-231 breast cancer cells,HT-29 colorectal adenocarcinoma cells, and U-937 renal […]
(§5) The cell lines were supplied by ATCC (American Type Culture Collection). The reference control used was Methotrexate. The cytotoxic activities of the examined compounds were quantified by inoculating a 96-well tissue culture plate with 1 X 10^5 cells / mL (100 uL/well) and incubating it at 37°C for 24 hours to develop a complete monolayer sheet. After forming a confluent sheet of cells, the growth medium was decanted from 96-well microtiter plates, and the cell monolayer was washed twice with wash media. Two-fold dilutions of tested samples were made in RPMI medium with 2% serum (maintenance medium), and 0.1 mL of each dilution was tested in different wells, with three wells serving as controls and receiving only maintenance medium. Following that, the plate was incubated at 37°C and examined. Cells were investigated for any physical signs of toxicity, such as partial or complete monolayer loss, rounding, shrinkage, or cell granulation. MTT solution was prepared (5mg/ml in PBS) (BIO BASIC CANADA INC), and 20 uL MTT solution was added to each well. After 5 minutes on a shaking table at150 rpm to thoroughly mix the MTT into the media, it was incubated (37°C, 5% CO2) for 4 hours to allow the MTT to be metabolized. Formazan (MTT metabolic product) was resuspended in 200 uL DMSO and shaken at 150 rpm for 5 minutes to thoroughly mix the formazan into the solvent. The optical density was measured at 560 nm, and the background was subtracted at 620 nm. Finally, the IC50 of the test compound in comparison to the reference was calculated using the GraphPad Prism software. […]

[2] = tested on: HT-29 colorectal adenocarcinoma cells; test: MTT cytotoxicity assay, HT-29; conditions: MTT; for Toxicity % / viability at 0.312 µM / viability at 0.625 µM / viability at 1.25 µM / viability at 2.5 µM / viability at 5 µM / viability at 10 µM: HT29; for viability at 0.312 µM / viability at 0.625 µM / viability at 1.25 µM / viability at 2.5 µM / viability at 5 µM / viability at 10 µM / IC50: Homo sapiens, HT-29; for IC50: mean of three independent experiments ± SD, read-out: IC50 Value HT-29
Protocol: as §1, §2, §3, §4, §5

[3] = MTT cytotoxicity assay, U-937; conditions: Homo sapiens, U-937, U937, MTT;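 also: Six-dose MTT colorimetric assay on cell monolayers, formazan absorbance read at 560 nm with 620 nm background removed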
Protocol: (§6) Using a six-dose MTT colorimetric assay [44, 66], all new synthetic compounds were tested for cytotoxicity against three cancer cell lines: MDA-MB-231 breast cancer cells, HT-29 colorectal adenocarcinoma cells, and U-937 renal cancer cells. […] These cell lines were supplied by ATCC (American Type Culture Collection) via the Holding company for biological products and vaccines (VACSERA, Cairo, Egypt). The reference control used was Methotrexate.
(§7) Using a six-dose MTT colorimetric assay [44, 66], allnew synthetic compounds were tested for cytotoxicity against three cancer cell lines: MDA-MB-231 breast cancer cells,HT-29 colorectal adenocarcinoma cells, and U-937 renal
(§8) The cell lines were supplied by ATCC (American Type Culture Collection). The reference control used was Methotrexate. The cytotoxic activities of the examined compounds were quantified by inoculating a 96-well tissue culture plate with 1 X 10^5 cells / mL (100 uL/well) and incubating it at 37°C for 24 hours to develop a complete monolayer sheet. After forming a confluent sheet of cells, the growth medium was decanted from 96-well microtiter plates, and the cell monolayer was washed twice with wash media. Two-fold dilutions of tested samples were made in RPMI medium with 2% serum (maintenance medium), and 0.1 mL of each dilution was tested in different wells, with three wells serving as controls and receiving only maintenance medium. Following that, the plate was incubated at 37°C and examined. Cells were investigated for any physical signs of toxicity, such as partial or complete monolayer loss, rounding, shrinkage, or cell granulation. MTT solution was prepared (5mg/ml in PBS) (BIO BASIC CANADA INC), and 20 uL MTT solution was added to each well. After 5 minutes on a shaking table at150 rpm to thoroughly mix the MTT into the media, it was incubated (37C, 5% CO2) for 4 hours to allow the MTT to be metabolized. Formazan (MTT metabolic product) was resuspended in 200 uL DMSO and shaken at 150 rpm for 5 minutes to thoroughly mix the formazan into the solvent. The optical density was measured at 560 nm, and the background was subtracted at 620 nm. Finally, the IC50 of the test compound in comparison to the reference was calculated using the GraphPad Prism software.

U-937 renal cancer cells = test: MTT cytotoxicity assay, U-937; conditions: MTT; for IC50: Homo sapiens, U-937, mean of three independent experiments ± SD, read-out: IC50 Value U-937; for Toxicity %: U937;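 as to all read-outs here: Six-dose MTT colorimetric assay on cell monolayers, formazan absorbance read at 560 nm with 620 nm background removed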
Protocol: as §6, §7, §8

SMILES | IC50 [1] [µM] | viability at 0.312 µM ([1]; 0.312 uM) [%] | viability at 0.625 µM ([1]; 0.625 uM) [%] | viability at 1.25 µM ([1]; 1.25 uM) [%] | viability at 2.5 µM ([1]; 2.5 uM) [%] | viability at 5 µM ([1]; 5 uM) [%] | viability at 10 µM ([1]; 10 uM) [%] | Toxicity % ([1]; 0.312 uM) [%] | Toxicity % ([1]; 0.625 uM) [%] | Toxicity % ([1]; 1.25 uM) [%] | Toxicity % ([1]; 2.5 uM) [%] | Toxicity % ([1]; 5 uM) [%] | Toxicity % ([1]; 10 uM) [%] | Toxicity % ([2]; 0.312 uM) [%] | Toxicity % ([2]; 0.625 uM) [%] | Toxicity % ([2]; 1.25 uM) [%] | Toxicity % ([2]; 2.5 uM) [%] | Toxicity % ([2]; 5 uM) [%] | Toxicity % ([2]; 10 uM) [%] | viability at 0.312 µM ([2]; 0.312 uM) [%] | further results
Nc1c(/N=C(/CBr)c2ccc([N+](=O)[O-])cc2)c(=O)[nH]c(=O)n1Cc1ccccc1 [Compound 5b, (E)-6-Amino-1-benzyl-5-((2-bromo-1-(4-nitrophenyl)ethylidene)amino)pyrimidine-2,4(1H,3H)-dione] | 2.37 ± 0.06 | 99.4 | 99.4 | 84.7 | 45.8 | 23.2 | 8.07 | 0.6206 | 0.5762 | 15.34 | 54.21 | 76.77 | 91.93 | 0 | 0.1292 | 6.891 | 27.39 | 74.68 | 88.24 | 100 | viability at 0.625 µM ([2]; 0.625 uM): 99.9%; viability at 1.25 µM ([2]; 1.25 uM): 93.1%; viability at 2.5 µM ([2]; 2.5 uM): 72.6%; viability at 5 µM ([2]; 5 uM): 25.3%; viability at 10 µM ([2]; 10 uM): 11.8%; IC50 [2]: 3.66 ± 0.05 µM; viability at 0.312 µM [3]: 99.9%; viability at 0.625 µM [3]: 99.9%; viability at 1.25 µM [3]: 99.6%; viability at 2.5 µM [3]: 99.1%; viability at 5 µM [3]: 50.3%; viability at 10 µM [3]: 16.3%; IC50 (U-937 renal cancer cells): 6.29 ± 0.26 µM; Toxicity % (U-937 renal cancer cells; 0.312 uM): 0.05447%; Toxicity % (U-937 renal cancer cells; 0.625 uM): 0.1089%; Toxicity % (U-937 renal cancer cells; 1.25 uM): 0.3813%; Toxicity % (U-937 renal cancer cells; 2.5 uM): 0.8715%; Toxicity % (U-937 renal cancer cells; 5 uM): 49.73%; Toxicity % (U-937 renal cancer cells; 10 uM): 83.71%
Nc1c(/N=C(/CBr)c2ccc([N+](=O)[O-])cc2)c(=O)[nH]c(=O)n1Cc1ccccc1Cl [Compound 5c, (E)-6-Amino-5-((2-bromo-1-(4-nitrophenyl)ethylidene)amino)-1-(2-chlorobenzyl) pyrimidine-2,4(1H,3H)-dione] | 3.28 ± 0.04 | 99.4 | 98.4 | 96.1 | 62.4 | 14.9 | 5.54 | 0.6206 | 1.551 | 3.901 | 37.63 | 85.06 | 94.46 | 0.1292 | 0.2153 | 6.417 | 59.99 | 93.84 | 94.36 | 99.9 | viability at 0.625 µM ([2]; 0.625 uM): 99.8%; viability at 1.25 µM ([2]; 1.25 uM): 93.6%; viability at 2.5 µM ([2]; 2.5 uM): 40%; viability at 5 µM ([2]; 5 uM): 6.16%; viability at 10 µM ([2]; 10 uM): 5.64%; IC50 [2]: 2.24 ± 0.04 µM; viability at 0.312 µM [3]: 99.7%; viability at 0.625 µM [3]: 99.5%; viability at 1.25 µM [3]: 99.7%; viability at 2.5 µM [3]: 99.3%; viability at 5 µM [3]: 48.2%; viability at 10 µM [3]: 14.3%; IC50 (U-937 renal cancer cells): 6.17 ± 0.15 µM; Toxicity % (U-937 renal cancer cells; 0.312 uM): 0.3268%; Toxicity % (U-937 renal cancer cells; 0.625 uM): 0.4902%; Toxicity % (U-937 renal cancer cells; 1.25 uM): 0.2723%; Toxicity % (U-937 renal cancer cells; 2.5 uM): 0.6536%; Toxicity % (U-937 renal cancer cells; 5 uM): 51.8%; Toxicity % (U-937 renal cancer cells; 10 uM): 85.73%
Cn1c(SCC(=O)c2ccc([N+](=O)[O-])cc2)nc(=O)c(/N=C(/CBr)c2ccc([N+](=O)[O-])cc2)c1N [Compound 8, (E)-6-Amino-5-((2-bromo-1-(4-nitrophenyl)ethylidene)amino)-1-methyl-2-((2-(4-nitrophenyl)-2-oxoethyl)thio)pyrimidin-4(1H)-one] | 2.31 ± 0.06 | 97.6 | 95.3 | 83.8 | 43.7 | 35.9 | 35.4 | 2.394 | 4.743 | 16.18 | 56.29 | 64.1 | 64.58 | 0.08613 | 0.1292 | 0.5599 | 0.3876 | 50.34 | 77.91 | 99.9 | viability at 0.625 µM ([2]; 0.625 uM): 99.9%; viability at 1.25 µM ([2]; 1.25 uM): 99.4%; viability at 2.5 µM ([2]; 2.5 uM): 99.6%; viability at 5 µM ([2]; 5 uM): 49.7%; viability at 10 µM ([2]; 10 uM): 22.1%; IC50 [2]: 6.48 ± 0.08 µM; viability at 0.312 µM [3]: 99.6%; viability at 0.625 µM [3]: 99.3%; viability at 1.25 µM [3]: 99.9%; viability at 2.5 µM [3]: 99.8%; viability at 5 µM [3]: 79.6%; viability at 10 µM [3]: 27.6%; IC50 (U-937 renal cancer cells): 7.77 ± 0.04 µM; Toxicity % (U-937 renal cancer cells; 0.312 uM): 0.3813%; Toxicity % (U-937 renal cancer cells; 0.625 uM): 0.6536%; Toxicity % (U-937 renal cancer cells; 1.25 uM): 0.05447%; Toxicity % (U-937 renal cancer cells; 2.5 uM): 0.2179%; Toxicity % (U-937 renal cancer cells; 5 uM): 20.42%; Toxicity % (U-937 renal cancer cells; 10 uM): 72.39%
CCn1c(N)c(/N=C(/CBr)c2ccc([N+](=O)[O-])cc2)c(=O)[nH]c1=O [Compound 5a, (E)-6-Amino-5-((2-bromo-1-(4-nitrophenyl)ethylidene)amino)-1-ethylpyrimidine-2,4(1H,3H)-dione] | 3.24 ± 0.03 | 99.7 | 99.6 | 91.2 | 53 | 23.8 | 4.21 | 0.266 | 0.4433 | 8.821 | 46.99 | 76.2 | 95.79 | 0.1292 | 0.2584 | 5.556 | 50.3 | 83.29 | 97.46 | 99.9 | viability at 0.625 µM ([2]; 0.625 uM): 99.7%; viability at 1.25 µM ([2]; 1.25 uM): 94.4%; viability at 2.5 µM ([2]; 2.5 uM): 49.7%; viability at 5 µM ([2]; 5 uM): 16.7%; viability at 10 µM ([2]; 10 uM): 2.54%; IC50 [2]: 3.09 ± 0.01 µM; viability at 0.312 µM [3]: 99.6%; viability at 0.625 µM [3]: 98.9%; viability at 1.25 µM [3]: 99.6%; viability at 2.5 µM [3]: 89.7%; viability at 5 µM [3]: 55.1%; viability at 10 µM [3]: 12.7%; IC50 (U-937 renal cancer cells): 6.08 ± 0.11 µM; Toxicity % (U-937 renal cancer cells; 0.312 uM): 0.4357%; Toxicity % (U-937 renal cancer cells; 0.625 uM): 1.144%; Toxicity % (U-937 renal cancer cells; 1.25 uM): 0.4357%; Toxicity % (U-937 renal cancer cells; 2.5 uM): 10.29%; Toxicity % (U-937 renal cancer cells; 5 uM): 44.93%; Toxicity % (U-937 renal cancer cells; 10 uM): 87.31%
